From publication PMC2949447 (The Journal of steroid biochemistry and molecular biology, 2010)

Experiments:
[1] = tested on: castrate immature male Sprague-Dawley rats; test: Effect of dutasteride in the sc androgenic assay; type: in vivo, rat; conditions: 8 days; for effect of concurrent DUT on androgen-stimulated VP and SV weights: maximal stimulatory sc dose of androgen ± DUT 1.0 mg/day orally
[2] = Serum androgen levels by RIA in androgen ± dutasteride treated rats; conditions: for serum DHT levels: n=10; for effect of concurrent DUT on serum level of the administered androgen: androgen sc ± DUT 1.0 mg/day orally, blood 2 h after final dose
[3] = tested on: castrate immature male Sprague-Dawley rats; test: sc androgenic assay in castrate immature rats; type: in vivo, rat
castrate rats = conditions: single sc injection 1.2 mg/rat, castrate 22 day-old rats; ref [5] and unpublished observations; cited from earlier work
[4] = tested on: recombinant human aromatase; conditions: conditions allowing complete conversion of T to estradiol; ref [13]; cited from earlier work
[5] = tested on: rat liver or prostate homogenates; conditions: ref Sundaram et al. [1]; cited from earlier work
[6] = target: T1, rat AR ligand binding domain (ARLBD) (Rattus norvegicus, UniProt P15207); test: Competitive binding to purified rat AR ligand binding domain; conditions: RBA = IC50 R1881/IC50 test compound X 100; R1881 defined as 100%
T1 sequence (P15207 651-882 limits assumed): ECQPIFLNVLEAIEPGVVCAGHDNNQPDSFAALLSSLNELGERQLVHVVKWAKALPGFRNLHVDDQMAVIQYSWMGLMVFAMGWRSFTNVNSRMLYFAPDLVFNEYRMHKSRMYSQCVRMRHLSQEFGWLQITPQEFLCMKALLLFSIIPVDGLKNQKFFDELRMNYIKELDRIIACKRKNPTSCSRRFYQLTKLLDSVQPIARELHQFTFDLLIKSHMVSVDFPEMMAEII

## C[C@]12C=CC(=O)N[C@@H]1CC[C@@H]1[C@@H]2CC[C@]2(C)[C@@H](C(=O)Nc3cc(C(F)(F)F)ccc3C(F)(F)F)CC[C@@H]12 [DUT, 17β-N-2,5-bis-[trifluoromethyl]-phenylcarbamoyl-4-aza-5a-androstan-1-en-3-one]
[1]; DUT 10 mg/day orally
  toxicity judged by suppression of body weights: showed evidence of toxicity
[1]; DUT 0.1, 1.0 or 10.0 mg/day orally with T 0.23 mg/day sc
  effect on VP and SV weights in T-treated rats: significantly decreased
[2]; T 0.23 mg sc + DUT 0.1 mg/rat orally, 8 days
  serum DHT levels: 606 ± 111 pg/mL
[2]; T 0.23 mg sc + DUT 1.0 mg/rat orally, 8 days
  serum DHT levels: 235 ± 36 pg/mL
[2]; T 0.23 mg sc + DUT 10 mg/rat orally, 8 days
  serum DHT levels: 56 ± 4 pg/mL

## C[C@@H]1C[C@H]2CC(=O)CC[C@@H]2[C@@H]2[C@@H]1[C@@H]1CC[C@H](O)[C@@]1(C)C[C@@H]2C [5α-DHDMA, 5α-dihydroDMA]
[3]; sc 7 days
  androgenic potency as percent of DMA (ventral prostate growth): 30-40%

## C[C@]12CCC(=O)C[C@@H]1CC[C@@H]1[C@@H]2CC[C@]2(C)[C@@H](O)CC[C@@H]12 [DHT, 5α-dihydrotestosterone]
[1]
  effect of concurrent DUT on androgen-stimulated VP and SV weights: comparable
[2]; 8 days
  effect of concurrent DUT on serum level of the administered androgen: not significantly different

## CCCCCCCCCCCCOC(=O)O[C@H]1CC[C@H]2[C@@H]3CCC4=CC(=O)CC[C@@H]4[C@H]3[C@@H](C)C[C@]12C [MNTDC, 11β-methyl-19-nortestosterone 17β-dodecylcarbonate]
Castrate rats
  duration VP and SV growth maintained above castrate levels: ~14 weeks

## C[C@H]1C[C@]2(C)[C@@H](O)CC[C@H]2[C@@H]2CCC3=CC(=O)CC[C@@H]3[C@H]21 [MNT, 11β-methyl-19-nortestosterone]
[1]
  effect of concurrent DUT on androgen-stimulated VP and SV weights: did not affect VP or SV weights
[4]
  aromatization to aromatic A-ring estrogen: not aromatized
[2]; 8 days
  effect of concurrent DUT on serum level of the administered androgen: higher

## C[C@@H]1CC2=CC(=O)CC[C@@H]2[C@@H]2[C@@H]1[C@@H]1CC[C@H](O)[C@@]1(C)C[C@@H]2C [DMA, 7α,11β-dimethyl-19-nortestosterone]
[3]; sc, Fig. 1b
  anabolic activity (stimulation of LA muscle weight), comparison: greater than that of 5α-DHDMA or T
[1]
  effect of concurrent DUT on androgen-stimulated VP and SV weights: did not affect VP or SV weights
[4]
  aromatization to aromatic A-ring estrogen: not aromatized
[2]; 8 days
  effect of concurrent DUT on serum level of the administered androgen: not significantly different

## C[C@]12CC[C@H]3[C@@H](CCC4=CC(=O)CC[C@@]43C)[C@@H]1CC[C@@H]2O [T, Testosterone]
[1]
  effect of concurrent DUT on androgen-stimulated VP and SV weights: significantly blunted
[2]; T sc + DUT 1.0 mg/day orally, 8 days
  effect of concurrent DUT on serum DHT in T-treated rats: suppressed to levels observed in castrate vehicle-treated rats
[2]; 8 days
  effect of concurrent DUT on serum level of the administered androgen: significantly elevated
[2]; rats treated sc with 0.23 mg T alone for 8 days, 2 h after final dose
  serum DHT levels: 1,247 ± 106 pg/ml

## CCCCCCCCCCC(=O)O[C@H]1CC[C@H]2[C@H]3[C@H]([C@@H](C)C[C@]12C)[C@H]1CCC(=O)C=C1C[C@H]3C [DMAU, dimethandrolone 17β-undecanoate]
Castrate rats
  duration VP and SV growth maintained above castrate levels: about 21 weeks

## C[C@@H]1CC2=CC(=O)CC[C@@H]2[C@H]2CC[C@]3(C)[C@@H](O)CC[C@H]3[C@@H]21 [MENT, 7α-methyl-19-nortestosterone]
[1]
  effect of concurrent DUT on androgen-stimulated VP and SV weights: comparable
[5]
  5α-reduction: not 5α-reduced
[2]; 8 days
  effect of concurrent DUT on serum level of the administered androgen: significantly decreased

## C[C@@H]1C[C@H]2CC(=O)CC[C@@H]2[C@H]2CC[C@]3(C)[C@@H](O)CC[C@H]3[C@@H]21 [5α-DHMENT, 5α-dihydroMENT]
[6]
  Binding to ARLBD RBA: 26%
